Test results as given in US9873674B2, “C-Rel inhibitors and uses thereof” (CORNELL UNIVERSITY, priority 2012, dated 2018).

Legend:
DLBCL tumor cells = experiment: DLBCL xenograft tumor model in NOD/SCID mice; assay type: in vivo, mouse
Method: Xenograft tumor models have been widely used to study human cancer. […] The experiment used non-obese diabetic (NOD)/SCID mice for testing Rel inhibitor analogs.
Male NOD/SCID mice were injected with 3-5×10^6 of DLBCL tumor cells subcutaneously in each flank area. When tumors were palpable (˜12 days after injection), the mice were randomized to receive either vehicle or test compounds corresponding to Rel inhibitors of the invention. In some experiments, DHMEQ was used as a benchmark compound. Compounds were administrated via i.p. at 12 to 24 mg/kg, three days per week for 2-3 weeks. Tumor volume was measured twice a week.

CD69 = experiment: Expression of non-c-Rel target genes; assay type: cell-based, mouse or human
RPMI8226 cells = experiment: Tumor cell cytotoxicity assay, multiple myeloma cell line RPMI8226; assay type: cell-based; details: RPMI8226 cells (active alternative pathway), 48 hours
Method: (§1) For example, the “classical” Rel pathway is crucial for the survival of L363 cell line, whereas the “alternative” pathway is important for the survival of RPMI8226 cells.
(§2) The MM and DLBCL cell lines were used to test for tumor cell cytotoxicity by the Rel inhibitor analogs. As an example, three MM cell lines were treated with a Rel inhibitor for 48 hours and cell numbers were enumerated as percentage of control group.

IL-2 [1] = experiment: IL-2 expression by ELISA in stimulated mouse splenocytes; assay type: cell-based; details: Splenocyte, mouse splenocytes stimulated with anti-CD3+anti-CD28, 0 to 20 μM, read-out: IC50 of IL2 inhibition
Method: In yet another example, IL-2 expression was quantified by ELISA analysis. In these experiments, mouse splenocytes were stimulated with anti-CD3+anti-CD28, in the presence of varying doses of Rel inhibitors (from 0 to 20 μM).

L363 cells = experiment: Tumor cell cytotoxicity assay, multiple myeloma cell line L363; assay type: cell-based; details: L363 cells (active classical pathway), 48 hours
Method: as §1, §2

IFN-γ = IFN-γ expression, intracellular cytokine staining and flow cytometry in CD4+ T cells; assay type: cell-based, mouse or human; details: anti-CD3+anti-CD28 for 6 hours, % cytokine-expressing CD4+ T cells; data not shown
Method: (§3) Since autoimmune diseases are associated with elevated levels of inflammatory cytokines, it is important to identify Rel inhibitors that can inhibit the expression of inflammatory cytokines. As c-Rel regulates the expression of several cytokines including IL-2, IFN-γ, and TNF, assays for these cytokines can be used to assess the anti-inflammatory effects of Rel inhibitor analogs. To perform such experiments, mouse splenocytes or human PBMCs were stimulated with anti-CD3+anti-CD28 for 6 hours to induce cytokine expression. Compounds were added at the beginning of the culture. Cytokines (IL-2, IFN-γ, and TNF) were measured by intracellular cytokine staining and flow cytometry and the % of cytokine-expressing cells within CD4+ T cell population was enumerated. Compounds at varying doses were tested.

STZ-induced diabetes = experiment: Streptozotocin (STZ)-induced diabetes model; assay type: in vivo; details: 40 μg/mouse/day IP, day 0 to day 5, C57BL/6 mice; data not shown
Method: In yet another example, a Rel inhibitor compound was tested in Streptozotocin (STZ)-induced diabetes model. C57BL/6 (cRel+/+) mice were treated with low dose STZ for 5 days to induce diabetes, as indicated by glucose level above 300 mg/dl. c-Rel(−/−) mice were used as a control group. The Rel inhibitor (BA-001, 40 μg/mouse/day) or DMSO were injected IP to a group of five C57BL/6 mice for six consecutive days from day 0 to day 5. Glucose levels were determined at day 5, 7, 9, 12, 15, 19 and 27.

IL-2 [2] = experiment: IL-2 expression, intracellular cytokine staining and flow cytometry in CD4+ T cells; assay type: cell-based, mouse or human; details: anti-CD3+anti-CD28 for 6 hours, % cytokine-expressing CD4+ T cells; data not shown
Method: as §3

MM1-144 cells = experiment: Tumor cell cytotoxicity assay, multiple myeloma cell line MM1-144; assay type: cell-based; details: MM1-144 cells (use both pathways), 48 hours
Method: as §1, §2

TNF = TNF expression, intracellular cytokine staining and flow cytometry in CD4+ T cells; assay type: cell-based, mouse or human; details: anti-CD3+anti-CD28 for 6 hours, % cytokine-expressing CD4+ T cells; data not shown
Method: as §3

DLBCL tumor cell lines = experiment: DLBCL cytotoxicity assay; assay type: cell-based; details: read-out: IC50 on DLBCL cytotoxicity assay
Method: as §2
The IC50 was defined as the concentration that causes 50% cell death compared with control samples. […] In summary, tumor cell lines were utilized to select for Rel inhibitors with tumor cytoxicity activities. […] Those compounds with in vitro anti-tumor activity were further tested in vivo using xenograft tumor models.

EAE = EAE model (multiple sclerosis) in C57BL/6 mice; assay type: in vivo, mouse
Method: As an example, C57BL/6 mice were immunized to induce EAE with 1) a subcutaneous injection on flanks of […] MOG38-50 peptide in 0.1 ml PBS emulsified in an equal volume of complete Freund's adjuvant containing […] mycobacterium tuberculosis H37RA, and 2) an intravenous injection of 100 ng pertussis toxin in 0.1 ml PBS. A second injection of pertussis toxin (100 ng per mouse) was given 48 hr later.
Mice were subsequently injected i.p. with 300 μg BA-039 (n=4) or vehicle (n=3) daily beginning with the first day of EAE onset. Mice were monitored daily for disease score up to 16 days.
In a second set of this experiment, treatment of the mice was stopped on the 16th day of the study and further monitored for additional 22 days. […] By contrast, the BA-039 treated group remained devoid of disease (average clinical score 1-2) (data not shown, manuscript in preparation). […] The data provide important information about treatment regimen with Rel inhibitors for multiple sclerosis patients in the future.

With `COc1ccc(C=C2C(=O)NC(=S)NC2=O)c(OC)c1` [BA-001, 5-(2,4-dimethoxybenzylidene)-2-thioxodihydro-pyrimidine-4,6(1H,5H)-dione] the “tumor growth compared to vehicle controls” value (DLBCL tumor cells; 24 mg/Kg i.p., three days per week, NOD/SCID mice) was “slowed the tumor growth”, the “anti-tumor potency compared with DHMEQ” value (DLBCL tumor cells; both 12 to 24 mg/kg doses, DLBCL xenograft mouse model) was “much better potency than DHMEQ” and the “inhibitory effect toward non-c-Rel target genes (e.g. CD69)” value (CD69) was “no inhibitory effects”. The “growth inhibition (cell numbers as percentage of control group)” value (RPMI8226 cells) was “quite resistant”, the IC50 (IL-2 [1]) was 15 µM and the “growth inhibition (cell numbers as percentage of control group)” value (L363 cells) was “dose-dependent apoptosis”. The IC50 (IFN-γ) was about 6 µM, the “resistance to STZ-induced diabetes (glucose level)” value (STZ-induced diabetes) was “resistant to STZ-induced diabetes” and the IC50 (IL-2 [2]) was about 6 µM. For the same compound, the “growth inhibition (cell numbers as percentage of control group)” value (MM1-144 cells) was “only partially inhibited” and the IC50 (TNF) was about 6 µM.

`COc1ccc(N2C(=O)/C(=C\c3c(OC)ccc4ccccc34)C(=O)NC2=S)cc1` [BA-030, 5-((2-methoxynaphthalen-1-yl)methylene)-1-(4-methoxyphenyl)-2-thioxodihydro-pyrimidine-4,6(1H,5H)-dione] was tested, and the IC50 (DLBCL tumor cell lines) was 4 µM and the IC50 (IL-2 [1]) was 0.4 µM.

With `COc1cc(OC)c2ccccc2c1C=C1C(=O)NC(=S)NC1=O` [BA-039, 5-((2,4-dimethoxynaphthalen-1-yl)methylene)-2-thioxodihydropyrimidine-4,6(1H,5H)-dione] the disease score (EAE; 300 μg i.p. daily from first day of EAE onset, up to 16 days, reduced from 2, vehicle rises 2 to 5) was 1 and the average clinical score (EAE; 22 days after treatment stopped on 16th day, control group score 5) was 1-2.

For `COc1ccc(C=C2C(=O)NC(=O)NC2=O)c2ccccc12` [BA-009, 5-((4-methoxynaphthalen-1-yl)methylene) pyrimidine-2,4,6(1H,3H,5H)-trione], the “tumor volume compared to vehicle controls” value (DLBCL tumor cells; 15 mg/kg i.p., three days per week, NOD/SCID mice) was “significantly smaller tumor volume”.
